Experimental data from PMC11203266, “Continuous evolution of compact protein degradation tags regulated by selective molecular glues” (Science (New York, N.Y.), 2024).

How the values were obtained:
[1] = tested on: SD40 fusions with Nluc, Fluc, and PRKRA; assay: Immunoblot, degradation of exogenously expressed SD40 fusion proteins in HEK293T cells; assay type: cell-based, human
Method: To test the versatility of SD40, we generated five stable HEK293T cell lines that exogenously express N- or C-terminal SD40 fusions with Nluc, Fluc, and the kinase activator PRKRA. […] To investigate whether SD40 targets unintended neosubstrates for degradation, we performed global proteomics using HEK293T cells stably expressing SD40–eGFP.
HEK293T or K562 cells were plated at a density of 1.6 x 10^5 cells/well in a 24-well plate coated with poly-D-lysine (Corning) in 1 mL media (DMEM + 10% FBS for HEK293T cells and RPMI + 10% FBS for K562 cells). After 16–18 hrs, cells were treated with either DMSO or the indicated concentration of small molecules to a 0.5% final concentration of DMSO. Plates were incubated at 37 °C, 5% CO2 for 24 hours for all cell lines except endogenously tagged PLK1–SD40 HEK293T cells, which were incubated for 2 hours. Cells were washed with PBS and then lysed for 30 minutes at 4 °C in radioimmunoprecipitation assay (RIPA; 25 mM Tris-HCl, 150 mM NaCl, 1% NP-40, 1% sodium deoxycholate, 0.1% SDS, pH ~ 7.6) buffer containing 1 mM phenylmethylsulfonyl fluoride (PMSF; Sigma Aldrich) and 1 x EDTA-free protease inhibitor cocktail (Roche). Lysates were centrifuged for 20 min @18,000 x g to isolate the soluble fractions. Protein concentration in clarified lysates was quantified using Pierce BCA Protein Assay Kit (Thermo Scientific) according to the manufacturer’s protocol. Clarified lysates were mixed with NuPAGE LDS Sample Buffer (Thermo NP0007) containing 10 mM DTT and boiled for 10 minutes. Gel electrophoresis was performed on boiled samples using polyacrylamide gels (Invitrogen NP0329BOX) with equal amounts of total protein in each lane. Proteins were transferred to nitrocellulose membranes (Invitrogen IB23001) using the iBlot 2 (Invitrogen IB21001) P0 protocol. After transfer, membranes were blocked in blocking buffer (50 mM Tris-HCl, 150 mM NaCl, 0.5% Tween-20, 1% bovine serum albumin, pH 7.4) for 1 hr at RT and then incubated with primary antibody overnight at 4 °C in blocking buffer. […]

[2] = biological target: T1, full-length CRBN (Homo sapiens, UniProt Q96SW2); assay: Full-length CRBN MG-PACE circuit luminescence assay; assay type: cell-based; conditions: pomalidomide; degron SD0; vs DMSO
T1 construct: Full-length CRBN MG-PACE circuit; expressed in transfected cells; host or cells: E. coli S2060
Excerpt: To evolve ZFs that engage PT-179-bound CRBN, we constructed an MG-PACE circuit using the CRBN•IMiD•ZF molecular glue complex. […] We translationally fused CRBN to the DNA-binding protein RR69 and fused SD0 to the RNAP ω-subunit, then measured transcriptional activation by luminescence (Fig. 2A).
Chemically competent S2060 cells were co-transformed with accessory and complementary plasmids (Table S1).

[3] = biological target: CRBNCTD (Homo sapiens, UniProt Q96SW2); assay: CRBNCTD MG-PACE circuit luminescence assay; assay type: cell-based; conditions: pomalidomide; degron SD0; vs DMSO
Excerpt: We also explored anchoring the circuit with the CRBN C-terminal domain (CTD) alone, which contains the IMiD binding pocket (Fig. 2B) ([65], [69]). […] We attributed the difference in maximum circuit activation to poor expression of full-length CRBN in E. coli. In our initial efforts, we used the CRBNCTD MG-PACE circuit, hypothesizing that higher activation (lower selection stringency) would better support weak-binding SD0 variants in the early stages of evolution.
Chemically competent S2060 cells were co-transformed with accessory and complementary plasmids (Table S1). Cells were plated on LB agar supplemented with carbenicillin, spectinomycin, and tetracycline and grown overnight at 37 °C. Single colonies were seeded in 1 mL DRM with carbenicillin and spectinomycin and grown overnight in a 37 °C shaker at 220 rpm. Overnight cultures were back-diluted 1:100 in DRM with carbenicillin and spectinomycin and grown at 37 °C with shaking until OD600 values reached 0.3-0.4. Polymyxin B nonapeptide (PMBN) was added to a final concentration of 3 μg/mL culture from a 1000x stock (3 mg/mL in DMSO). […] 96-well plates were then incubated in an Infinite M1000 Pro microplate reader (Tecan) at 37 °C with continuous shaking for ~1 hour prior to reading A600 nm and luminescence values. Raw luminescence values were then divided by the corresponding A600 nm values to normalize to cell density.

T1 sequence (Q96SW2 whole entry): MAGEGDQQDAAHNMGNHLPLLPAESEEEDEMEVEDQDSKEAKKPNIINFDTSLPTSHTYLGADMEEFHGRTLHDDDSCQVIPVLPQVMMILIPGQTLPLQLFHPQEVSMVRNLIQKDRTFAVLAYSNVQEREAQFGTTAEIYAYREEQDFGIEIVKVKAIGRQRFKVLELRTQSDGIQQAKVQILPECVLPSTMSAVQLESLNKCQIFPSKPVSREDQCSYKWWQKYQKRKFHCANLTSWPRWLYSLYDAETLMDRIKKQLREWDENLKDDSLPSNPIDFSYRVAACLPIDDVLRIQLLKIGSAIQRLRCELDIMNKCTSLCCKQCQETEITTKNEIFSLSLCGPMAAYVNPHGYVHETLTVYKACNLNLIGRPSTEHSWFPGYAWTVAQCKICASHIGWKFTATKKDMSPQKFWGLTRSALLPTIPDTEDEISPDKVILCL
CRBNCTD, sequence (Q96SW2 318-426 limits assumed): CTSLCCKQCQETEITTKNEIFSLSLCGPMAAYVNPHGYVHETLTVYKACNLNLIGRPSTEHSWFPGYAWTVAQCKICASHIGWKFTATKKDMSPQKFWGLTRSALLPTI

## O=C1CCC(N2C(=O)c3ccc(N4CCOCC4)cc3C2=O)C(=O)N1 (centres unmarked) [PT-179]
[1]; 1 μM PT-179, SD40-PRKRA
  time at which PRKRA degradation occurred: ≤ 10 min
  time to near complete PRKRA degradation (in words): nearly complete within one hour
[1]; 24 hrs, 1 nM-10 µM
  degradation of N- or C-terminal SD40 fusion constructs (in words): robust dose-dependent degradation

## Nc1cccc2c1C(=O)N(C1CCC(=O)NC1=O)C2=O (centres unmarked) [pomalidomide, reference compound]
[2]
  maximal transcriptional activation: 7 fold
[3]
  transcriptional activation at the highest dose: 13 fold
